How the values were obtained:
[1] = in vitro; details: human, Caco-2
[2] = in vitro; details: human, Caco-2; remark: listed apart in the source
[3] = Volume of distribution at steady state in AP Wistar rat at 2.1 to 4.0 mg/kg, iv and 8.1 to 8.9 mg/kg, po; type: ADME, organism-based; details: in vivo, read-out: Vdss
[4] = Bioavailability in AP Wistar rat at 2.1 to 4.0 mg/kg, iv and 8.1 to 8.9 mg/kg, po; type: ADME, organism-based; details: in vivo, at 8.1 to 8.9 mg/kg
[5] = Half life in AP Wistar rat at 2.1 to 4.0 mg/kg, iv and 8.1 to 8.9 mg/kg, po; type: ADME, organism-based; details: in vivo
[6] = Clearance in AP Wistar rat at 2.1 to 4.0 mg/kg, iv and 8.1 to 8.9 mg/kg, po; type: ADME, organism-based; details: in vivo

| Papp A→B [1] [×10⁻⁶ cm/s] | Papp B→A [2] [×10⁻⁶ cm/s] | Vd [3] [L/kg] | bioavailability [4] [%] | half-life [5] [h] | clearance [6] [mL/min/kg] | SMILES |
| --- | --- | --- | --- | --- | --- | --- |
| 0.3 | 11 |  |  |  |  | O=C(O)CN1C(=O)C(NC(=O)c2cc3sc(Cl)c(Cl)c3[nH]2)Cc2ccccc21 (stereo not given) |
|  |  | 1.4 | 12 | 5.4 | 5.1 | O=C(CN1C(=O)C(NC(=O)c2cc3cc(Cl)sc3[nH]2)Cc2ccccc21)NCCO (stereo not given) |
|  |  | 1.4 | 35 | 16 | 1.2 | NC(=O)CN1C(=O)C(NC(=O)c2cc3cc(Cl)sc3[nH]2)Cc2ccccc21 (stereo not given) |
| 29 | 29 | 1.9 | > 100 | 11 | 2.4 | O=C(NC1Cc2ccccc2N(C[C@@H](O)CO)C1=O)c1cc2cc(Cl)sc2[nH]1 (mixture of isomers) |
|  |  | 2.2 | 41 | 13 | 2.5 | O=C(NC1Cc2ccccc2N(CC(CO)CO)C1=O)c1cc2cc(Cl)sc2[nH]1 (racemic) |

— ChEMBL document CHEMBL1146283, “Development of potent, orally active 1-substituted-3,4-dihydro-2-quinolone glycogen phosphorylase inhibitors” (Bioorg Med Chem Lett, 2007)
